What was measured:
[1] = target: T1, WEE1 (Homo sapiens, UniProt P30291); experiment: pTyr37-H2B immunoprecipitation/immunoblot in synchronized H1975 cells; type: cell-based; set-up: endogenous in cells; host or cells: H1975; conditions: 6.30 hours post-release, 0.3 μM
Method: (§1) FIG. 13A is an immunoblot showing lysates from synchronized MEFs immunoprecipitated with pTyr37-H2B antibodies followed by immunoblotting with pTyr37-H2B antibody (top panel) or H2B antibody (bottom panel). FIG. 13B is an immunoblot showing cell lysates 6.30 hours post-release from H1975 cells synchronized by double thymidine alone (first column) or with 0.31 μM (second column), 0.62 μM (third column) and 1.25 μM (fourth column) MK1775 WEE1 inhibitor that were immunoprecipitated with pTyr37-H2B antibodies followed by immunoblotting with pTyr37-H2B, H2B, pTyr15-Cdc2, or Cdc2 antibodies. FIG. 13C is an immunoblot showing lysates collected at 0 and 6.30 hours post-release from synchronized MEFs transfected with control (first two columns) or WEE1 (last two columns) siRNAs that were immunoprecipitated with pTyr37-H2B antibodies followed by immunoblotting with pTyr37-H2B (top panel), H2B (second panel), WEE1 (third panel), or PTyr15-Cdc2 (bottom panel) antibodies. FIG. 13D is an immunoblot showing equimolar amounts of purified WEE1 (last three columns) and H2B (first three columns) proteins incubated in the presence (third column) or absence of WEE1 inhibitor (MK1775, 0.625 μM) for 1 hour at 30° C. and immunoblotted with pTyr37-H2B (top panel), H2B (middle panel), and WEE1 (bottom panel) antibodies. […]

[2] = tested on: cancers and cancer cell lines; conditions: cited from earlier work
[3] = tested on: core histone genes located in Hist1 cluster; experiment: Quantitative RT-PCR of core histone transcripts in synchronized MEFs; type: cell-based, mouse; conditions: MK1775 0.625 μM, 14 hr, after 6.30 hours post-release (compare 8.30 hours)
[4] = target: T1, WEE1; experiment: H4 Tyr88 peptide ELISA in vitro kinase assay with purified WEE1; type: biochemical; set-up: GST; purchased Invitrogen; conditions: read at 450 nm
Method: Biotinylated unphosphorylated and Tyr88-phosphorylated H4 peptides were immobilized on streptavdin 96-well plates. […] ELISA was performed as described in text.
WEE1 and Ack1 are two non-receptor tyrosine kinases or NRTKs that have known nuclear functions. To determine whether WEE1 and Ack1 can directly target H4 for Tyr88-phosphorylation, this study performed in vitro kinase assay. In brief, the Streptavidin coated 96-well plates (R&D systems) were incubated with biotinylated H4-derived peptide […] (SEQ ID NO: 64) for 1 hour. The plates were washed and the purified WEE1 or Ack1 were added in kinase buffer (20 mM HEPES, 150 mM NaCl, 0.5% Triton X-100, 10% Glycerol, phosphatase and protease inhibitors) containing ATP and MgCl2. After 2 hours of incubation, plates were washed with phosphate buffered saline containing 0.1% Tween 20 (PBST) and blocked in 3% BSA. The pY88-H4 antibodies (at 1:500 dilution) were added and incubated for 1 hour. Unbound antibodies were washed and HRP-conjugated anti-mouse secondary Antibodies (1:2000) were added. Magnitude of phosphorylation was detected using developer solution (OPD tablets, Sigma) and the plates were read at 450 nm. As a negative control, no kinase and no peptide reactions were used. The biotinylated phosphopeptide […]p[…] (SEQ ID NO: 65) was used as a positive control.

[5] = target: T1, WEE1; experiment: In vitro kinase assay, purified WEE1 and H2B; type: biochemical; set-up: GST; purchased Invitrogen; conditions: MK1775 0.625 μM, 1 hour at 30° C.
Method: as §1

T1 sequence (P30291 whole entry): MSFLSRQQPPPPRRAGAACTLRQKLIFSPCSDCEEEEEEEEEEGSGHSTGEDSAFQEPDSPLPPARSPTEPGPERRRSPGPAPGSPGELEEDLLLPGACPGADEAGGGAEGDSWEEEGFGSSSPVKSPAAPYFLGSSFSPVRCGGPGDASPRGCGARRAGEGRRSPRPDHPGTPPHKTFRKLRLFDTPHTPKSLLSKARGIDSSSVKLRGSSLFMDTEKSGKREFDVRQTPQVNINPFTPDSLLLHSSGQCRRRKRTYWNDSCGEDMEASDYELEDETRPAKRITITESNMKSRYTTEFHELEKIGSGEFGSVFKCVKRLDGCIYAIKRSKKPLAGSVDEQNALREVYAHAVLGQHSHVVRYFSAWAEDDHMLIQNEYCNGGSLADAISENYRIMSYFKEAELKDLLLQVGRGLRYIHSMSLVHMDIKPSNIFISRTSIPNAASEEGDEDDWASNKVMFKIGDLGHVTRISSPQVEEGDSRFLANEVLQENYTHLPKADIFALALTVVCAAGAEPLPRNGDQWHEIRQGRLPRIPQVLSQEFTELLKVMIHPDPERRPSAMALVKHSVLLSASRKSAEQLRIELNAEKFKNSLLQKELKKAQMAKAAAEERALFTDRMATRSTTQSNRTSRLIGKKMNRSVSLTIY

pTyr37-phosphorylation of H2B [1]: complete loss
H4 Tyr88-phosphorylation by WEE1 [4]: significantly decreased
H2B pTyr37-phosphorylation by purified WEE1 [5]: abrogated
SMILES: C=CCn1c(=O)c2cnc(Nc3ccc(N4CCN(C)CC4)cc3)nc2n1-c1cccc(C(C)(C)O)n1 [MK-1775]
sensitization to DNA damaging agents such as gemcitabine, 5-fluorouracil [2]: able to sensitize
histone mRNA levels [3]: significant increase

— US9594084B2, “Phosphorylation of histones and uses thereof” (H. LEE MOFFITT CANCER CENTER AND RESEARCH INSTITUTE, priority 2012, dated 2017)
